# Measured values reported in patent publication US20230172959A1, “USE OF NMN FOR THE PREVENTION AND/OR TREATMENT OF A BACK PAIN AND CORRESPONDING COMPOSITIONS” (NUVAMID SA, priority 2020, published 2023).
# How the values were obtained:
# Format in all cases: in vivo, human
# chronic lumbalgia [1] = assay: WOMAC questionnaire, 10-day satisfaction study in 12 volunteers
# Protocol: More precisely, the WOMAC score is calculated on the basis of the responses to the questions below: The total score corresponds to the average of the 24 items. The same is true for the score for each area of assessment. A satisfaction study was carried out on a group of 12 volunteers, aged 42±8 years, consisting of seven female and five male subjects. The main objective of this study was to evaluate the level of satisfaction of subjects with regard to the evolution of their lumbalgia (low back pain) during the morning and/or evening application of a composition according to the invention containing 5% by weight of NMN. A composition in the form of an oil-in-water emulsion comprising 5% NMN was formulated as follows, the ingredients being designated by their INCI (International Nomenclature of Cosmetic Ingredients) name: Aqua, Paraffinum liquidum, Cetyl alcohol, Glyceryl stearate, Benzyl PCA, Ceteareth-20, Ceteareth-12, Cetyl Palmitate, Cocoglycerides, Cetearyl alcohol, Sodium Hydroxide, NMN. The composition was prepared according to any method well known to the person skilled in the art. The study took place over 10 days. At baseline, ie upon inclusion (DO), the selected subjects provide their demographic characteristics (age, weight, height), indicate the period of persistence and intensity of the pain on a Visual Analogue Scale, and complete the WOMAC and Lequesne questionnaires. These different scales were used in order to assess by different means the effect of NMN on lumbalgia. On day 10, the volunteers complete the WOMAC questionnaire, the Lequesne questionnaire, the Visual Analogue Scale (VAS) of pain, indicating the perceived improvement in lumbalgia pain relief as measured by the PGI-I index (abbreviation for “Patient Global Improvement Impression”), satisfaction with regard to evolution of the lumbalgia on a Likert scale as well as the ease of application and penetration of the composition, assessment of the texture and odour of the composition, likelihood of re-use thereof in the event of recurrence of a similar pain, and recommendation of use to third parties presenting with pain of similar nature. The PGI-I index is an index that serves as means for evaluating the response to a treatment. The Likert scale is a psychometric tool used for measuring an attitude in individuals, which consists of one or more statements for which the individual responding expresses their degree of agreement or disagreement.
# [2] = Adverse side effects and allergies reported by the volunteers; conditions: 10 days topical use of 5% NMN emulsion, 12 volunteers
# Protocol: A satisfaction study was carried out on a group of 12 volunteers, aged 42±8 years, consisting of seven female and five male subjects. The main objective of this study was to evaluate the level of satisfaction of subjects with regard to the evolution of their lumbalgia (low back pain) during the morning and/or evening application of a composition according to the invention containing 5% by weight of NMN.
# A composition in the form of an oil-in-water emulsion comprising 5% NMN was formulated as follows, the ingredients being designated by their INCI (International Nomenclature of Cosmetic Ingredients) name: Aqua, Paraffinum liquidum, Cetyl alcohol, Glyceryl stearate, Benzyl PCA, Ceteareth-20, Ceteareth-12, Cetyl Palmitate, Cocoglycerides, Cetearyl alcohol, Sodium Hydroxide, NMN. The composition was prepared according to any method well known to the person skilled in the art.
# Over the subsequent 9 day period, each evening the subjects fill in the Visual Analogue Scale of pain, ensuring any discomfort or problems arising or the taking of analgesics are reported therein.
# chronic lumbalgia [3] = assay: Perceived improvement (PGI-I index) and satisfaction with evolution of lumbalgia (Likert scale); conditions: end of the study
# Protocol: A satisfaction study was carried out on a group of 12 volunteers, aged 42±8 years, consisting of seven female and five male subjects. The main objective of this study was to evaluate the level of satisfaction of subjects with regard to the evolution of their lumbalgia (low back pain) during the morning and/or evening application of a composition according to the invention containing 5% by weight of NMN. A composition in the form of an oil-in-water emulsion comprising 5% NMN was formulated as follows, the ingredients being designated by their INCI (International Nomenclature of Cosmetic Ingredients) name: Aqua, Paraffinum liquidum, Cetyl alcohol, Glyceryl stearate, Benzyl PCA, Ceteareth-20, Ceteareth-12, Cetyl Palmitate, Cocoglycerides, Cetearyl alcohol, Sodium Hydroxide, NMN. The composition was prepared according to any method well known to the person skilled in the art. On day 10, the volunteers complete the WOMAC questionnaire, the Lequesne questionnaire, the Visual Analogue Scale (VAS) of pain, indicating the perceived improvement in lumbalgia pain relief as measured by the PGI-I index (abbreviation for “Patient Global Improvement Impression”), satisfaction with regard to evolution of the lumbalgia on a Likert scale as well as the ease of application and penetration of the composition, assessment of the texture and odour of the composition, likelihood of re-use thereof in the event of recurrence of a similar pain, and recommendation of use to third parties presenting with pain of similar nature. The PGI-I index is an index that serves as means for evaluating the response to a treatment. The Likert scale is a psychometric tool used for measuring an attitude in individuals, which consists of one or more statements for which the individual responding expresses their degree of agreement or disagreement.
# [4] = after 10 days vs baseline, p<0.001
structure (smiles),measurement,setting,value
"NC(=O)c1ccc[n+]([C@@H]2O[C@H](COP(=O)([O-])O)[C@@H](O)[C@H]2O)c1 (stereo in doubt) [NMN, nicotinamide mononucleotide]","WOMAC ""function"" criterion","chronic lumbalgia [1]; after 10 days of application, baseline 57.1±15.5, 5% NMN emulsion topical",30.8±21.8
same,total WOMAC score,"chronic lumbalgia [1]; after 10 days of application, baseline 58.3±14.8, 5% NMN emulsion topical",30.9±21.7
same,"WOMAC ""pain"" criterion","chronic lumbalgia [1]; after 10 days of application, baseline 59.9±13.1, 5% NMN emulsion topical",31.0±21.2
same,"WOMAC ""stiffness"" criterion","chronic lumbalgia [1]; after 10 days of application, baseline 64.2±21.0, 5% NMN emulsion topical",31.6±25.0
same,decrease of total WOMAC score,chronic lumbalgia [1]; [4],48.6±33.7%
same,"reduction of WOMAC ""pain"" criterion",chronic lumbalgia [1]; [4],50.1±31.3%
same,"reduction of WOMAC ""stiffness"" criterion",chronic lumbalgia [1]; [4],52.5±32.9%
same,"reduction of WOMAC ""function"" criterion","chronic lumbalgia [1]; after 10 days vs baseline, p<0.01",47.5±35.6%
same,adverse side effects,[2],neither any adverse side effects
same,allergies,[2],nor developed any allergies
same,subjects with improvement characterised as 'considerable',chronic lumbalgia [3]; 3 subjects,25.0%
same,subjects with improvement characterised as 'a lot',chronic lumbalgia [3]; 4 subjects,33.3%
same,subjects with improvement characterised as 'slight',chronic lumbalgia [3]; 4 subjects,33.3%
same,subjects who experienced improvement,chronic lumbalgia [3]; 12 subjects,91.7%
same,participants satisfied with the evolution of their chronic lumbalgia,chronic lumbalgia [3]; Likert scale,91.7%
same,participants very satisfied with the evolution of their chronic lumbalgia,chronic lumbalgia [3]; Likert scale,33.3%
